This passage reports Emax and EC50 results from patent US8629143B2, “Potassium channel modulators” (AbbVie Inc., priority 2009, dated 2014).

The structures appear in SMILES notation.

The target of this assay is T1, KCNQ 2/3 channels (HEK293 cells stably expressing human KCNQ2 and KCNQ3 subunits) (Homo sapiens, UniProt O43525+O43526).
T1 construct: expressed in transfected cells; host or cells: HEK293
The experiment in a line: KCNQ2/3 channel activation, thallium flux FLIPR assay with BTC-AM dye. Type of assay: cell-based. To be noted: for Emax: HEK293, maximum response relative to the response produced by 10 μM retigabine (set at 100%), read-out: Max. %; for EC50: HEK293 cells expressing human KCNQ2 and KCNQ3, thallium flux, FLIPR. In a few lines:
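HEK293 cells stably expressing human KCNQ2/KCNQ3 were loaded with BTC-AM (3 μg/mL, 2 h, RT) and preincubated with compound for 4 min in pH 7.3 gluconate buffer containing 0.1 mM ouabain. Flux was triggered by 6 mM TlNO3/10 mM K2SO4 and read for 3 min; EC50 came from summed responses over basal, with maximum relative to 10 μM retigabine (100%).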

As a reminder, the EC50 is the concentration needed to bring the measured effect to its halfway point. Read a high EC50 as a need for much substance. In the case of `Cc1ccc(-c2nn(NC(=O)C[C@@H]3C[C@@H]4C=C[C@H]3C4)c(=O)c3ccccc23)c(C)c1` [Example 159, 2-[(1S,2S,4S)-bicyclo[2.2.1]hept-5-en-2-yl]-N-[4-(2,4-dimethylphenyl)-1-oxophthalazin-2(1H)-yl]acetamide], the Emax was 156% and the EC50 fell in the range of 100 to 500 nM.
With `Cc1ccc(-c2nn(NC(=O)Cc3ccc(Cl)cc3)c(=O)c3ccccc23)c(C)c1` [Example 161, 2-(4-chlorophenyl)-N-[4-(2,4-dimethylphenyl)-1-oxophthalazin-2(1H)-yl]acetamide], the Emax was 145% and the EC50 fell in the range of 100 to 500 nM.
`Cc1ccc(-c2nn(NC(=O)Cc3cc(F)cc(F)c3)c(=O)c3ccccc23)c(C)c1` [Example 162, 2-(3,5-difluorophenyl)-N-[4-(2,4-dimethylphenyl)-1-oxophthalazin-2(1H)-yl]acetamide]: the Emax is 164% and the concentration giving a half-maximal response (EC50) is 100 to 500 nM.
On to `Cc1ccc(-c2nn(NC(=O)CC34CC5CC(CC(C5)C3)C4)c(=O)c3ccccc23)cc1C` [Example 164, 2-(adamantan-1-yl)-N-[4-(3,4-dimethylphenyl)-1-oxophthalazin-2(1H)-yl]acetamide], for which the Emax came to 155% and the EC50 was less than 100 nM.
Regarding `Cc1ccc(-c2nn(NC(=O)Cc3ccc(Cl)cc3)c(=O)c3ccccc23)cc1C` [Example 165, 2-(4-chlorophenyl)-N-[4-(3,4-dimethylphenyl)-1-oxophthalazin-2(1H)-yl]acetamide], the Emax is 112% and the EC50 lay in the range of 100 to 500 nM.
With `Cc1ccc(-c2nn(NC(=O)Cc3cc(F)cc(F)c3)c(=O)c3ccccc23)cc1C` [Example 166, 2-(3,5-difluorophenyl)-N-[4-(3,4-dimethylphenyl)-1-oxophthalazin-2(1H)-yl]acetamide], the Emax turned out to be 161% and the EC50 was in the range of 100 to 500 nM.
As for `CC(C)c1ccc(-c2nn(NC(=O)CC34CC5CC(CC(C5)C3)C4)c(=O)c3ccccc23)cc1` [Example 169, 2-(adamantan-1-yl)-N-[4-(4-isopropylphenyl)-1-oxophthalazin-2(1H)-yl]acetamide], the Emax turned out to be 139% and the EC50 fell in the range of 100 to 500 nM.
With `CC(C)c1ccc(-c2nn(NC(=O)Cc3ccc(Cl)cc3)c(=O)c3ccccc23)cc1` [Example 170, 2-(4-chlorophenyl)-N-[4-(4-isopropylphenyl)-1-oxophthalazin-2(1H)-yl]acetamide], the Emax turned out to be 104% and the half-maximal effective concentration (EC50) fell in the range of 500 to 1000 nM.
As to `CC(C)c1ccc(-c2nn(NC(=O)Cc3cc(F)cc(F)c3)c(=O)c3ccccc23)cc1` [Example 171, 2-(3,5-difluorophenyl)-N-[4-(4-isopropylphenyl)-1-oxophthalazin-2(1H)-yl]acetamide], the Emax was determined as 134% and the EC50 lay in the range of 500 to 1000 nM.
For `CC(C)c1nn(NC(=O)CC23CC4CC(CC(C4)C2)C3)c(=O)c2cc(C(F)(F)F)ccc12` [Example 173, 2-(adamantan-1-yl)-N-[4-isopropyl-1-oxo-7-(trifluoromethyl)phthalazin-2(1H)-yl]acetamide], the Emax is -12% and the EC50 was greater than 10000 nM.
`COc1ccc(-c2nn(NC(=O)CC34CC5CC(CC(C5)C3)C4)c(=O)c3cc(Br)ccc23)cc1` [Example 174, 2-(adamantan-1-yl)-N-[7-bromo-4-(4-methoxyphenyl)-1-oxophthalazin-2(1H)-yl]acetamide]: the Emax is 20% and the EC50 is greater than 10000 nM.
With `COc1ccc(-c2nn(NC(=O)CC34CC5CC(CC(C5)C3)C4)c(=O)c3ccc(Br)cc23)cc1` [Example 175, 2-(adamantan-1-yl)-N-[6-bromo-4-(4-methoxyphenyl)-1-oxophthalazin-2(1H)-yl]acetamide], the Emax turned out to be 13% and the 50% effective concentration (EC50) was greater than 10000 nM.
In the case of `COc1ccc(-c2nn(NC(=O)Cc3cc(F)cc(F)c3)c(=O)c3ccc(Br)cc23)cc1` [Example 176, N-[6-bromo-4-(4-methoxyphenyl)-1-oxophthalazin-2(1H)-yl]-2-(3,5-difluorophenyl)acetamide], the Emax is 33% and the concentration giving a half-maximal response (EC50) lay within 100 to 500 nM.
Take `COc1ccc(-c2nn(NC(=O)Cc3cc(F)cc(F)c3)c(=O)c3cc(Br)ccc23)cc1` [Example 177, N-[7-bromo-4-(4-methoxyphenyl)-1-oxophthalazin-2(1H)-yl]-2-(3,5-difluorophenyl)acetamide]: the Emax turned out to be 48% and the 50% effective concentration (EC50) was greater than 10000 nM.
Regarding `O=C(CC12CC3CC(CC(Br)(C3)C1)C2)Nn1nc(-c2ccccc2)c2ccsc2c1=O` [Example 178, 2-(3-bromoadamantan-1-yl)-N-(7-oxo-4-phenylthieno[2,3-d]pyridazin-6(7H)-yl)acetamide], the Emax was 56% and the EC50 is greater than 10000 nM.
Consider `O=C(CC12CC3CC(CC(F)(C3)C1)C2)Nn1nc(-c2ccccc2)c2ccsc2c1=O` [Example 179, 2-(3-fluoroadamantan-1-yl)-N-(7-oxo-4-phenylthieno[2,3-d]pyridazin-6(7H)-yl)acetamide], for which the Emax is 169% and the EC50 was in the range of 500 to 1000 nM.
Take `O=C(CC12CC3CC(CC(O)(C3)C1)C2)Nn1nc(-c2ccccc2)c2ccsc2c1=O` [Example 180, 2-(3-hydroxyadamantan-1-yl)-N-(7-oxo-4-phenylthieno[2,3-d]pyridazin-6(7H)-yl)acetamide]: the Emax was -3% and the concentration giving a half-maximal response (EC50) was greater than 10000 nM.
Turning to `O=C(Cc1cc(F)cc(F)c1)Nn1nc(-c2ccc(Cl)cc2)c2c(F)ccc(F)c2c1=O` [Example 181, N-[4-(4-chlorophenyl)-5,8-difluoro-1-oxophthalazin-2(1H)-yl]-2-(3,5-difluorophenyl)acetamide], the Emax turned out to be 166% and the half-maximal effective concentration (EC50) was 100 to 500 nM.
Regarding `O=C(Cc1ccc(Cl)cc1)Nn1nc(-c2ccc(Cl)cc2)c2c(F)ccc(F)c2c1=O` [Example 182, 2-(4-chlorophenyl)-N-[4-(4-chlorophenyl)-5,8-difluoro-1-oxophthalazin-2(1H)-yl]acetamide], the Emax worked out at 122% and the concentration giving a half-maximal response (EC50) was in the range of 100 to 500 nM.
In the case of `O=C(CC12CC3CC(CC(C3)C1)C2)Nn1nc(-c2ccc(Cl)cc2)c2c(F)ccc(F)c2c1=O` [Example 183, 2-(adamantan-1-yl)-N-[4-(4-chlorophenyl)-5,8-difluoro-1-oxophthalazin-2(1H)-yl]acetamide], the Emax came out at 178% and the EC50 is 100 to 500 nM.
Taken in the same sequence, the figures for `O=C(CC12CC3CC(CC(C3)C1)C2)Nn1nc(-c2ccccc2)c2c(c1=O)CCCC2` [Example 185, 2-(adamantan-1-yl)-N-(1-oxo-4-phenyl-5,6,7,8-tetrahydrophthalazin-2(1H)-yl)acetamide] were 144% and less than 100 nM.
Regarding `O=C(Cc1cc(F)cc(F)c1)Nn1nc(-c2ccccc2)c2c(c1=O)CCCC2` [Example 186, 2-(3,5-difluorophenyl)-N-(1-oxo-4-phenyl-5,6,7,8-tetrahydrophthalazin-2(1H)-yl)acetamide], the Emax stood at 136% and the half-maximal effective concentration (EC50) lay within 100 to 500 nM.
In the case of `O=C(Cc1ccc(Cl)cc1)Nn1nc(-c2ccccc2)c2c(c1=O)CCCC2` [Example 187, 2-(4-chlorophenyl)-N-(1-oxo-4-phenyl-5,6,7,8-tetrahydrophthalazin-2(1H)-yl)acetamide], the Emax amounted to 123% and the EC50 lay in the range of 100 to 500 nM.
On to `O=C(Cc1cc(F)cc(F)c1)Nn1nc(-c2ccccc2)c2c(c1=O)CCC2` [Example 188, 2-(3,5-difluorophenyl)-N-(1-oxo-4-phenyl-1,5,6,7-tetrahydro-2H-cyclopenta[d]pyridazin-2-yl)acetamide], for which the Emax was found to be 131% and the 50% effective concentration (EC50) was 1000 to 10000 nM.
As to `O=C(CC12CC3CC(CC(C3)C1)C2)Nn1nc(-c2ccccc2)c2c(c1=O)CCC2` [Example 189, 2-(adamantan-1-yl)-N-(1-oxo-4-phenyl-1,5,6,7-tetrahydro-2H-cyclopenta[d]pyridazin-2-yl)acetamide], the Emax worked out at 152% and the half-maximal effective concentration (EC50) is 100 to 500 nM.
Take `O=C(Cc1ccc(Cl)cc1)Nn1nc(-c2ccccc2)c2c(c1=O)CCC2` [Example 190, 2-(4-chlorophenyl)-N-(1-oxo-4-phenyl-1,5,6,7-tetrahydro-2H-cyclopenta[d]pyridazin-2-yl)acetamide]: the Emax worked out at 124% and the EC50 was 1000 to 10000 nM.
In the case of `CSCC(=O)Nn1nc(C(F)(F)F)c2ccccc2c1=O` [Example 191, 2-(methylthio)-N-[1-oxo-4-(trifluoromethyl)phthalazin-2(1H)-yl]acetamide], the Emax came out at 25% and the EC50 is greater than 10000 nM.
As for `O=C(CSC12CC3CC(CC(C3)C1)C2)Nn1nc(C(F)(F)F)c2ccccc2c1=O` [Example 192, 2-(adamantan-1-ylthio)-N-[1-oxo-4-(trifluoromethyl)phthalazin-2(1H)-yl]acetamide], the Emax amounted to 155% and the EC50 fell in the range of 100 to 500 nM.
Take `O=C(CSC12CC3CC(CC(C3)C1)C2)Nn1nc(-c2ccccc2)c2ccccc2c1=O` [Example 193, 2-(adamantan-1-ylthio)-N-(1-oxo-4-phenylphthalazin-2(1H)-yl)acetamide]: the Emax amounted to 161% and the EC50 is 100 to 500 nM.
`O=C(Cc1ccc2c(c1)OCO2)Nn1nc(-c2ccc(Cl)cc2)c2ccccc2c1=O` [Example 194, 2-(1,3-benzodioxol-5-yl)-N-[4-(4-chlorophenyl)-1-oxophthalazin-2(1H)-yl]acetamide]: the Emax was 248% and the EC50 lay in the range of 500 to 1000 nM.
